Entries after “also recorded” stand apart in the source; their conditions may differ. Structures can show the parent of a compound that is named as a salt.
Assays:
[1] = Stability under refrigerator conditions (5 ± 3° C.) of Compound 2; type: physicochemical
Description: Three conditions were tested: accelerated stability (40 2° C./75±5% RH) over a 6-month time period, ambient stability (25±2° C./60±5% RH) over a 9-month period, and stability under refrigerator conditions (5 3° C.) over a 9-month time period. The results for accelerated stability, ambient stability, and refrigerator conditions are shown in Table 23, Table 24, and Table 25, respectively.
The only impurities detected even after 9 months were those from related substance 1 and water.

[2] = Storage of Compound 1 forms and amorphous salts at 25° C./60% RH for 14 days (HPLC, XRPD, observation)
Description: This initial characterization was followed by storage at 25° C./60% relative humidity (RH) for 14 days with analysis by […] and XRPD after 7 and 14 days. FIG. 4A is the XRPD after 14 days at 25° C./60% (RH).
The samples were then frozen with the solvent removed by lyophilization.
The samples were then subjected to storage at 25° C./60% relative humidity (RH) for 14 days with analysis by HPLC and XRPD after 7 (FIG. 4B) and 14 days (FIG. 5A).

With `CNc1nc(N)nc2c1ncn2[C@@H]1O[C@H](CO[P@@](=O)(N[C@@H](C)C(=O)OC(C)C)Oc2ccccc2)[C@@H](O)[C@@]1(C)F` [Compound 2, hemi-sulfate salt of isopropyl((S)-(((2R,3R,4R,5R)-5-(2-amino-6-(methylamino)-9H-purin-9-yl)-4-fluoro-3-hydroxy-4-methyltetrahydrofuran-2-yl)methoxy)(phenoxy)phosphoryl)-L-alaninate] the “Total impurities of related substance 1” value ([1]; 5° C., after 9 months) was 0.01%, the Water content ([1]; 5° C., after 9 months) was 0.32% and the Appearance ([1]; 5 ± 3° C., 0 month) was “White”. For the same compound, the Assay ([1]; 5 ± 3° C., 0 month) was 98.8%, the IR ([1]; 5 ± 3° C., 0 month) was “correspond” and the “Related Substance 1 Any other single impurity” value ([1]; 5 ± 3° C., 0 month) was 0.01%. The “Related Substance 1 Total Impurities” value ([1]; 5 ± 3° C., 0 month) was 0.01%, the Water ([1]; 5 ± 3° C., 0 month) was 0.45% and the Appearance ([1]; 5 ± 3° C., 1st month) was “White”. The Assay ([1]; 5 ± 3° C., 1st month) was 101.1%, the “Related Substance 1 Any other single impurity” value ([1]; 5 ± 3° C., 1st month) was 0.01% and the “Related Substance 1 Total Impurities” value ([1]; 5 ± 3° C., 1st month) was 0.01%. For the same compound, the Water ([1]; 5 ± 3° C., 1st month) was 0.19%, the Appearance ([1]; 5 ± 3° C., 3rd month) was “White” and the Assay ([1]; 5 ± 3° C., 3rd month) was 100.2%. The IR ([1]; 5 ± 3° C., 3rd month) was “correspond”, the “Related Substance 1 Any other single impurity” value ([1]; 5 ± 3° C., 3rd month) was 0.01% and the “Related Substance 1 Impurity B” value ([1]; 5 ± 3° C., 3rd month) was 0.01%. For the same compound, the “Related Substance 1 Total Impurities” value ([1]; 5 ± 3° C., 3rd month) was 0.03%, the Water ([1]; 5 ± 3° C., 3rd month) was 0.32% and the Appearance ([1]; 5 ± 3° C., 6th month) was “White”. For the same compound, the Assay ([1]; 5 ± 3° C., 6th month) was 98.6%, the IR ([1]; 5 ± 3° C., 6th month) was “correspond” and the “Related Substance 1 Any other single impurity” value ([1]; 5 ± 3° C., 6th month) was 0.01%. The “Related Substance 1 Total Impurities” value ([1]; 5 ± 3° C., 6th month) was 0.03%, the Water ([1]; 5 ± 3° C., 6th month) was 0.42% and the Appearance ([1]; 5 ± 3° C., 9th month) was “Off-white”. The Assay ([1]; 5 ± 3° C., 9th month) was 101.4%, the IR ([1]; 5 ± 3° C., 9th month) was “correspond” and the “Related Substance 1 Any other single impurity” value ([1]; 5 ± 3° C., 9th month) was 0.01%. For the same compound, the “Related Substance 1 Total Impurities” value ([1]; 5 ± 3° C., 9th month) was 0.01%, the Water ([1]; 5 ± 3° C., 9th month) was 0.32% and the “Stability” value ([1]; refrigerator conditions (5° C.), 9 months) was “very chemically stable; also recorded: stable”. The “Hygroscopicity” value [2] was “not hydroscopic; also recorded: non-hygroscopic” and the “Physical/chemical stability and appearance on storage” value ([2]; 25° C./60% RH, 14 days) was “stable white solid”.

Reference: US20210087217A1, “NUCLEOTIDE HEMI-SULFATE SALT FOR THE TREATMENT OF HEPATITIS C VIRUS” (Atea Pharmaceuticals, Inc., priority 2017, published 2021)
